Data as given in ChEMBL document CHEMBL2413072, “Synthesis and in vitro anticancer studies of novel C-2 arylidene congeners of lantadenes” (2013).

Key:
Assay type in all cases: functional
COLO 205 [1] = assay: Growth inhibition of human COLO205 cells by sulforhodamine B assay
SR = assay: Growth inhibition of human SR cells by sulforhodamine B assay
IGROV-1 = assay: Growth inhibition of human IGROV1 cells assessed as cell growth at 10^-8 M by sulforhodamine B assay; conditions: read-out: Activity
HT-29 = assay: Growth inhibition of human HT-29 cells assessed as cell growth at 10^-8 M by sulforhodamine B assay; conditions: read-out: Activity
HCT-15 [2] = assay: Growth inhibition of human HCT15 cells assessed as cell growth at 10^-8 M by sulforhodamine B assay; conditions: read-out: Activity
A549 [3] = assay: Growth inhibition of human A549/ATCC cells assessed as cell growth at 10^-8 M by sulforhodamine B assay; conditions: read-out: Activity
[4] = Growth inhibition of human NCI-ADR-RES cells by sulforhodamine B assay
OVCAR-8 [5] = assay: Growth inhibition of human OVCAR8 cells by sulforhodamine B assay
UACC-257 [6] = assay: Growth inhibition of human UACC257 cells by sulforhodamine B assay
MDA-MB-435 = assay: Growth inhibition of human MDA-MB-435 cells by sulforhodamine B assay
MDA-MB-468 = assay: Growth inhibition of human MDA-MB-468 cells assessed as cell growth at 10^-4 M by sulforhodamine B assay; conditions: read-out: Activity
MCF7 [7] = assay: Growth inhibition of human MCF7 cells assessed as cell growth at 10^-4 M by sulforhodamine B assay; conditions: read-out: Activity
SN12C [8] = assay: Growth inhibition of human SN12C cells assessed as cell growth at 10^-4 M by sulforhodamine B assay; conditions: read-out: Activity
CAKI-1 = assay: Growth inhibition of human CAKI-1 cells assessed as cell growth at 10^-4 M by sulforhodamine B assay; conditions: read-out: Activity
SNB-75 = assay: Growth inhibition of human SNB75 cells assessed as cell growth at 10^-4 M by sulforhodamine B assay; conditions: read-out: Activity
SNB-19 = assay: Growth inhibition of human SNB19 cells assessed as cell growth at 10^-4 M by sulforhodamine B assay; conditions: read-out: Activity
SW-620 = assay: Growth inhibition of human SW620 cells assessed as cell growth at 10^-4 M by sulforhodamine B assay; conditions: read-out: Activity
KM12 [9] = assay: Growth inhibition of human KM12 cells assessed as cell growth at 10^-4 M by sulforhodamine B assay; conditions: read-out: Activity
NCI-H322M = assay: Growth inhibition of human NCI-H322M cells assessed as cell growth at 10^-4 M by sulforhodamine B assay; conditions: read-out: Activity
HOP-92 [10] = assay: Growth inhibition of human HOP92 cells assessed as cell growth at 10^-4 M by sulforhodamine B assay; conditions: read-out: Activity
PC-3 [11] = assay: Growth inhibition of human PC3 cells assessed as cell growth at 10^-6 M by sulforhodamine B assay; conditions: read-out: Activity
ACHN [12] = assay: Growth inhibition of human ACHN cells assessed as cell growth at 10^-6 M by sulforhodamine B assay; conditions: read-out: Activity
OVCAR-8 [13] = assay: Growth inhibition of human OVCAR8 cells assessed as cell growth at 10^-6 M by sulforhodamine B assay; conditions: read-out: Activity
UACC-62 = assay: Growth inhibition of human UACC62 cells assessed as cell growth at 10^-6 M by sulforhodamine B assay; conditions: read-out: Activity
UACC-257 [14] = assay: Growth inhibition of human UACC257 cells assessed as cell growth at 10^-6 M by sulforhodamine B assay; conditions: read-out: Activity
SK-MEL-28 = assay: Growth inhibition of human SK-MEL-28 cells assessed as cell growth at 10^-6 M by sulforhodamine B assay; conditions: read-out: Activity
SF-295 = assay: Growth inhibition of human SF295 cells assessed as cell growth at 10^-6 M by sulforhodamine B assay; conditions: read-out: Activity
KM12 [15] = assay: Growth inhibition of human KM12 cells assessed as cell growth at 10^-6 M by sulforhodamine B assay; conditions: read-out: Activity
NCI-H226 = assay: Growth inhibition of human NCI-H226 cells assessed as cell growth at 10^-6 M by sulforhodamine B assay; conditions: read-out: Activity
HOP-92 [16] = assay: Growth inhibition of human HOP92 cells assessed as cell growth at 10^-6 M by sulforhodamine B assay; conditions: read-out: Activity
K562 = assay: Growth inhibition of human K562 cells assessed as cell growth at 10^-6 M by sulforhodamine B assay; conditions: read-out: Activity
TK-10 = assay: Growth inhibition of human TK10 cells assessed as cell growth at 10^-7 M by sulforhodamine B assay; conditions: read-out: Activity
SN12C [17] = assay: Growth inhibition of human SN12C cells assessed as cell growth at 10^-7 M by sulforhodamine B assay; conditions: read-out: Activity
ACHN [18] = assay: Growth inhibition of human ACHN cells assessed as cell growth at 10^-7 M by sulforhodamine B assay; conditions: read-out: Activity
SF-268 = assay: Growth inhibition of human SF268 cells assessed as cell growth at 10^-7 M by sulforhodamine B assay; conditions: read-out: Activity
HCT-116 = assay: Growth inhibition of human HCT116 cells assessed as cell growth at 10^-7 M by sulforhodamine B assay; conditions: read-out: Activity
HCT-15 [19] = assay: Growth inhibition of human HCT15 cells assessed as cell growth at 10^-7 M by sulforhodamine B assay; conditions: read-out: Activity
COLO 205 [20] = assay: Growth inhibition of human COLO205 cells assessed as cell growth at 10^-7 M by sulforhodamine B assay; conditions: read-out: Activity
NCI-H460 = assay: Growth inhibition of human NCI-H460 cells assessed as cell growth at 10^-7 M by sulforhodamine B assay; conditions: read-out: Activity
A549 [21] = assay: Growth inhibition of human A549/ATCC cells assessed as cell growth at 10^-7 M by sulforhodamine B assay; conditions: read-out: Activity
MCF7 [22] = assay: Growth inhibition of human MCF7 cells assessed as cell growth at 10^-8 M by sulforhodamine B assay; conditions: read-out: Activity
PC-3 [23] = assay: Growth inhibition of human PC3 cells assessed as cell growth at 10^-8 M by sulforhodamine B assay; conditions: read-out: Activity
SN12C [24] = assay: Growth inhibition of human SN12C cells assessed as cell growth at 10^-8 M by sulforhodamine B assay; conditions: read-out: Activity
[25] = read-out: LC50 (the source's name)
[26] = read-out: pLC50 (the source's name) (converted)

## CC(C)=CC(=O)O[C@@H]1CC(C)(C)C[C@H]2C3=CC[C@@H]4[C@@]5(C)CC[C@H](O)C(C)(C)[C@@H]5CC[C@@]4(C)[C@]3(C)CC[C@@]12C(=O)O [Reduced Lantadene B]
COLO 205 [1]; read-out: GI50
  GI50: 3.66 µM
COLO 205 [1]; read-out: LC50
  LC50: 93.6 µM
COLO 205 [1]; read-out: TGI
  TGI: 14.3 µM
COLO 205 [1]; read-out: pGI50 (converted)
  GI50: 3.63 µM
COLO 205 [1]; read-out: pLC50 (converted)
  LC50: 93.3 µM
COLO 205 [1]; read-out: pTGI (converted)
  TGI: 14.5 µM
SR; read-out: GI50
  GI50: 5.04 µM
SR; [25]
  CC50: > 100 µM
SR; read-out: TGI
  TGI: 35.4 µM
SR; read-out: pGI50 (converted)
  GI50: 5.01 µM
SR; [26]
  CC50: > 100 µM
SR; read-out: pTGI (converted)
  TGI: 35.5 µM
IGROV-1
  growth at 0.01 µM: 104%
HT-29
  growth at 0.01 µM: 91%
HCT-15 [2]
  growth at 0.01 µM: 93%
A549 [3]
  growth at 0.01 µM: 91%
[4]; read-out: GI50
  GI50: 5.83 µM
[4]; [25]
  CC50: > 100 µM
[4]; read-out: TGI
  TGI: 35.9 µM
[4]; read-out: pGI50 (converted)
  GI50: 5.89 µM
[4]; [26]
  CC50: > 100 µM
[4]; read-out: pTGI (converted)
  TGI: 36.3 µM
OVCAR-8 [5]; read-out: GI50
  GI50: 4.68 µM
OVCAR-8 [5]; [25]
  CC50: > 100 µM
OVCAR-8 [5]; read-out: TGI
  TGI: 28.9 µM
OVCAR-8 [5]; read-out: pGI50 (converted)
  GI50: 4.68 µM
OVCAR-8 [5]; [26]
  CC50: > 100 µM
OVCAR-8 [5]; read-out: pTGI (converted)
  TGI: 28.8 µM
UACC-257 [6]; read-out: GI50
  GI50: 14.5 µM
UACC-257 [6]; [25]
  CC50: > 100 µM
UACC-257 [6]; read-out: TGI
  TGI: 45.6 µM
UACC-257 [6]; read-out: pGI50 (converted)
  GI50: 14.5 µM
UACC-257 [6]; [26]
  CC50: > 100 µM
UACC-257 [6]; read-out: pTGI (converted)
  TGI: 45.7 µM
MDA-MB-435; read-out: GI50
  GI50: 11.9 µM
MDA-MB-435; [25]
  CC50: > 100 µM
MDA-MB-435; read-out: TGI
  TGI: 48.4 µM
MDA-MB-435; read-out: pGI50 (converted)
  GI50: 12 µM
MDA-MB-435; [26]
  CC50: > 100 µM
MDA-MB-435; read-out: pTGI (converted)
  TGI: 47.9 µM
MDA-MB-468
  growth at 100 µM: -77%
MCF7 [7]
  growth at 100 µM: -43%
SN12C [8]
  growth at 100 µM: -91%
CAKI-1
  growth at 100 µM: -9%
SNB-75
  growth at 100 µM: -38%
SNB-19
  growth at 100 µM: -62%
SW-620
  growth at 100 µM: -15%
KM12 [9]
  growth at 100 µM: -47%
NCI-H322M
  growth at 100 µM: -70%
HOP-92 [10]
  growth at 100 µM: -81%
PC-3 [11]
  growth at 1 µM: 67%
ACHN [12]
  growth at 1 µM: 64%
OVCAR-8 [13]
  growth at 1 µM: 82%
UACC-62
  growth at 1 µM: 82%
UACC-257 [14]
  growth at 1 µM: 98%
SK-MEL-28
  growth at 1 µM: 97%
SF-295
  growth at 1 µM: 59%
KM12 [15]
  growth at 1 µM: 48%
NCI-H226
  growth at 1 µM: 86%
HOP-92 [16]
  growth at 1 µM: 70%
K562
  growth at 1 µM: 69%
TK-10
  growth at 0.1 µM: 93%
SN12C [17]
  growth at 0.1 µM: 96%
ACHN [18]
  growth at 0.1 µM: 93%
SF-268
  growth at 0.1 µM: 93%
HCT-116
  growth at 0.1 µM: 94%
HCT-15 [19]
  growth at 0.1 µM: 87%
COLO 205 [20]
  growth at 0.1 µM: 97%
NCI-H460
  growth at 0.1 µM: 100%
A549 [21]
  growth at 0.1 µM: 79%
MCF7 [22]
  growth at 0.01 µM: 97%
PC-3 [23]
  growth at 0.01 µM: 97%
SN12C [24]
  growth at 0.01 µM: 101%
